Results on four compounds are retold here after patent publication US6664231B1, “Anti-fungal peptides” (priority 1993, dated 2003).

Where two headings read alike, the source gives them in different places.

In one test the test system is Candida albicans SLU-1. The experiment in a line: Radial diffusion assay (Example 3), wild type strain. The format is cell-based. Conditions: FIG. 2A. The protocol: For the radial diffusion assays, Candida albicans SLU-1 were grown as described above and SLU-2G were grown overnight in Sabouraud dextrose broth supplemented with 10 μg/mL amphotericin B and 5 μg/mL ceftriaxone at 37° C. Cultures were diluted 1:25 into fresh, unsupplemented broth and allowed to grow for 5 hours at 37° C. Cells were pelleted at 1,500×g for 5 minutes at 4° C. Supernatant was decanted and replaced with 5 mL of 10 mM phosphate buffer, pH 7.4. After centrifugation the cell pellets were resuspended with 5 mL phosphate buffer for an OD570 determination. One OD570 for SLU-1 cells was 3×10^7 CFU/mL and for SLU-2G cells was 5×10^6 CFU/mL.
Cells were added to 10 mL of molten, cooled (˜45° C.) underlayer agarose to a concentration of 1×10^6/mL and the suspension was poured into a level square petri plate with gentle rocking to allow even distribution and solidification to a uniform thickness of about 1 mm. Wells were cut into the hardened agarose with a sterilize, 3 mm diameter punch with vacuum.
Peptides were two-fold serially diluted with DPBS from a starting concentration of approximately 1 mg/mL. Amphotericin B and nystatin were similarly diluted starting at 100 and 225 μg/mL, respectively. Five μL were added per well and allowed to diffuse at 37° C. for 1.5-2.0 hours. Then 10 mL of molten overlayer agarose were added and the plates were incubated inverted at 37° C. overnight. Plates were stained with a dilute Coomassie solution, inhibition zones were measured with calipers and net areas were calculated, then converted to pmol values by PROBIT analysis. The results of a representative experiment are shown in FIG. 2A for the SLU-1 strain and FIG. 2B for the SLU-2G strain. In FIGS. 2A and 2B, the fungicidal activity is represented for XMP.13 as open circles; for XMP.37 as closed circles; for XMP.97 as open triangles; for XMP.127 as closed triangles; for amphotericin B as open squares; and for nystatin as closed squares. The pmol for a 30 mm^2 zone of inhibition were calculated to be: for XMP.13, 689 pmol against SLU-1 and 129 pmol against SLU-2G; for XMP.37, 231 pmol against SLU-1 and 75 pmol against SLU-2G; for XMP.97, 670 pmol against SLU-1 and 161 pmol against SLU-2G; for XMP.127, 935 pmol against SLU-1 and 116 pmol against SLU-2G; for amphotericin B, 36 pmol against SLU-1 and >541 pmol for SLU-2G; and for nysttin, 98 pmol against SLU-1 and >1,215 pmol against SLU-2G.

The subject of test [1] is C. albicans (CA-1, Strain SLU-1). Put plainly: Radial diffusion assay. The test is classed as cell-based, Candida albicans. Conditions: pmoles of peptide added to well to achieve a 30 mm^2 zone, PROBIT analysis, crude or purified (P′) peptide. An outline of the steps: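 Peptides, serially diluted 2-fold in D-PBS (top ~1 mg/mL), diffused 3 h at 37° C into pH 7.4 phosphate-buffered agarose seeded with 1×10^6 CFU/mL yeast, before overnight growth under a 6% Sabouraud overlayer. Net inhibition zones measured after Coomassie staining; PROBIT fit of log pmol vs area gave pmol for 30 mm^2.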

A further test relates to Aspergillus ATCC 13073. The experiment in a line: microbe, parasite or virus in culture. The test is classed as cell-based. The protocol:
(§1) The anti-fungal activity of Domain III derived peptides was evaluated against a variety of fungal species, including species of Candida. Cryptococcus, Fusarium, Trichophyton, and Aspergillus, by an additional assay protocol utilizing Alamar Blue. Alamar Blue is an indicator dye formulated to measure quantitatively the proliferation of a variety of human or animal cells, bacteria, or fungi. It consists of an oxidation-reduction (REDOX) indicator that yields a colorimetric change in response to metabolic activity. For these experiments, species of Candida and Cryptococcus were grown in Sabouraud's dextrose broth (SDB) overnight. Strains of filamentous fungi (Aspergilius, Fusanum, Trichophyton) were obtained by irrigation of a confluent culture from a petri dish. Cells were washed and adjusted to a concentration of 5.0×10^3/mL in fresh SDB. […] Controls included amphotericin B, fluconazole, ketoconazole and griseofulvin. Antifungal drugs were also diluted in the same manner. Assays were performed in 96-well microuiter plates. […] The wells to be plated were determined by OD590 readings. The lowest concentration of peptide which maintained the blue color (or OD reading) of the blank was chosen along with the next two higher concentrations. Plates were allowed to grow for 18-48 hours depending on the rate of growth of each fungus. Minimal fungicidal activity (MFC) was determined as a 99.9% killing of the starting inoculum.

The test system of test [2] is Fusarium solani ATCC 36031. Put plainly: microbe, parasite or virus in culture. The format is cell-based. How it is done: as §1
The subject of test [3] is Candida parapsilosis ATCC 22019. The experiment in a line: microbe, parasite or virus in culture. The test is classed as cell-based. The protocol:
as §1

Test [4] relates to Candida albicans (SLU-1 and ATCC strains). The experiment in a line: microbe, parasite or virus in culture. The format is cell-based. The protocol:
as §1

The test system of test [5] is Cryptococcus neoformans ATCC 13690. Put plainly: microbe, parasite or virus in culture. The format is cell-based. The protocol: as §1
Test [6] concerns Aspergillus niger ATCC 16404. The experiment in a line: microbe, parasite or virus in culture. The test is classed as cell-based. The protocol: as §1
In test [7] the test system is Candida glabrata ATCC 2001. The experiment in a line: microbe, parasite or virus in culture. The test is classed as cell-based. How it is done:
as §1

On to H-KSKVGWAIQLFHKK-NH2 [XMP.37], for which the “pmol for a 30 mm^2 zone of inhibition against SLU-1” value (“pmol … of inhibition against SLU-1” below) in the test with Candida albicans SLU-1 worked out at 231 pmol. In addition, in [1], the “C. albicans pmol/30 mm^2 zone” value was found to be 253 pmol/30 mm^2 zone.

As to H-KSKVGWLIQLFHKK-NH2 [XMP.13], the “pmol … of inhibition against SLU-1” value with Candida albicans SLU-1 was found to be 689 pmol. For the same compound, the “C. albicans pmol/30 mm^2 zone” value in test [1] stood at 541 pmol/30 mm^2 zone; in test [1] (listed as XMP.13P′), 222 pmol/30 mm^2 zone.

On to H-SKVKWLIQLFHKK-NH2 [XMP.284], for which the “Minimum Fungicidal Concentration, Aspergillus ATCC 13073” value in the test with Aspergillus ATCC 13073 (ATCC 13073) amounted to 12.50 µg/mL. In addition, the “Minimum Fungicidal Concentration, Fusarium solani ATCC 36031” value in test [2] (ATCC 36031) was 0.31 µg/mL. The “Minimum Fungicidal Concentration, Candida parapsilosis ATCC 22019” value in test [3] (ATCC 22019) was >10.0 µg/mL. Also, in test [4] (SLU-1 and ATCC strains), the “Minimum Fungicidal Concentration, Candida albicans ATCC 10231” value was found to be 5.0 µg/mL; the “Minimum Fungicidal Concentration, Candida albicans ATCC 18840” value was determined as 2.5 µg/mL; the “Minimum Fungicidal Concentration, Candida albicans ATCC 26555” value was determined as 1.25 µg/mL; the “Minimum Fungicidal Concentration, Candida albicans ATCC 44808” value is 1.25 µg/mL. In test [4] (SLU-1 and ATCC strains), the “Minimum Fungicidal Concentration, Candida albicans ATCC 90028” value came to 1.25 µg/mL and the “Minimum Fungicidal Concentration, Candida albicans SLU-1” value is 2.50 µg/mL. For the same compound, the “Minimum Fungicidal Concentration, Cryptococcus neoformans ATCC 13690” value in [5] (ATCC 13690) came out at 0.63 µg/mL. Further, in test [6] (ATCC 16404), the “Minimum Fungicidal Concentration, Aspergillus niger ATCC 16404” value amounted to 2.5 µg/mL. In addition, in test [7] (ATCC 2001), the “Minimum Fungicidal Concentration, Candida glabrata ATCC 2001” value was >10.0 µg/mL. Also, the “C. albicans pmol/30 mm^2 zone” value in test [1] was 1,460 pmol/30 mm^2 zone. The “C. albicans pmol/30 mm^2 zone” value in [1] (listed as XMP.284P′) was determined as 373 pmol/30 mm^2 zone.

Take `C[C@@H]1[C@H](O)[C@@H](C)/C=C/C=C/C=C/C=C/C=C/C=C/C=C/[C@H](O[C@@H]2O[C@H](C)[C@@H](O)[C@H](N)[C@@H]2O)C[C@@H]2O[C@](O)(C[C@@H](O)C[C@@H](O)[C@H](O)CC[C@@H](O)C[C@@H](O)CC(=O)O[C@H]1C)C[C@H](O)[C@H]2C(=O)O` [Amphotericin B, amphotericin B, reference compound]: the “Minimum Fungicidal Concentration, Aspergillus ATCC 13073” value with Aspergillus ATCC 13073 stood at 12.50 µg/mL. The “Minimum Fungicidal Concentration, Fusarium solani ATCC 36031” value in test [2] turned out to be 0.62 µg/mL. Besides, the “Minimum Fungicidal Concentration, Candida parapsilosis ATCC 22019” value in test [3] turned out to be 5.0 µg/mL. Also, the “Minimum Fungicidal Concentration, Candida albicans ATCC 10231” value in [4] (strain ATCC 10231) was 0.63 µg/mL. The “Minimum Fungicidal Concentration, Candida albicans ATCC 18840” value in [4] (strain ATCC 18840) is 1.25 µg/mL. Further, the “Minimum Fungicidal Concentration, Candida albicans ATCC 26555” value in test [4] (strain ATCC 26555) worked out at 1.25 µg/mL. In addition, the “Minimum Fungicidal Concentration, Candida albicans ATCC 44808” value in test [4] (strain ATCC 44808) was 1.25 µg/mL. Moreover, the “Minimum Fungicidal Concentration, Candida albicans ATCC 90028” value in [4] (strain ATCC 90028) came to 1.25 µg/mL. The “Minimum Fungicidal Concentration, Candida albicans SLU-1” value in test [4] (strain SLU-1) came to 0.63 µg/mL. Besides, the “Minimum Fungicidal Concentration, Cryptococcus neoformans ATCC 13690” value in test [5] is 1.25 µg/mL. For the same compound, the “Minimum Fungicidal Concentration, Aspergillus niger ATCC 16404” value in test [6] was found to be 5.00 µg/mL. Moreover, the “Minimum Fungicidal Concentration, Candida glabrata ATCC 2001” value in test [7] is 0.32 µg/mL. Besides, the “pmol … of inhibition against SLU-1” value with Candida albicans SLU-1 was found to be 36 pmol.
